Results reported in US5126258A (priority 1988, dated 1992).

How the values were obtained:
Type in all cases: biochemical, mouse
[1] = tested on: monoclonal receptor P3 6D4; experiment: Stoichiometric transacylation reaction of monoclonal receptor P3 6D4 with coumarin ester Compound 5 (fluorescence) and its inhibition/inactivation
How it was run: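 Antibody P3 6D4 (100 nM final) reacted at 23 °C with coumarin ester 5 in Tris-HCl or phosphate buffer (50 mM, pH 4–9), followed by fluorescence (ex 355/em 455 nm). Initial rates corrected for spontaneous hydrolysis; kinetic parameters from hyperbolic and double-reciprocal fits, Ki from Lineweaver-Burk with ≥5 inhibitor concentrations.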

P2 50D8 = experiment: Catalytic hydrolysis by receptor P2 50D8
Protocol: Two further catalytic monoclonal receptors were similarly prepared by another fusion using Compound 2i linked to an antigenic carrier as immunogen. Those two catalytic receptor molecules and their hybridomas were designated "P2 50D8" and "P2 57G4".
In one study, twenty-eight monoclonal anti-hapten antibodies to phosphonate 2i from two separate fusion experiments were assayed. […] Antibodies to Compound 4i as hapten were assayed in the same manner. Twelve gamma-globulins were screened as described above. Compound 5 is homologous only in the acyl portion of this larger hapten; however, all but three of these cross-reacted with smaller phosphonate 2 in an ELISA assay as described herein. For two of these there was observed a fluorescence change, occurring in the first 5 minutes of incubation, which corresponds to about 50 percent of that for complete hydrolysis. The background rate of hydrolysis was reestablished after this initial reaction leveled off.

13E10 = experiment: Hydrolysis of reactant ligands by receptor 13E10; conditions: for hydrolysis by 13E10: pH 8.0, receptor/ligand uM, time h: 17 1/10, 2, 18 2/10, 24, 20 2/10, 0.33, 5 1/5, 0.33, 22 5/10, 3.5, preliminary
Protocol: (§1) ^1 Preliminary initial hydrolyses shown as the percentage of admixed
(§2) reactant ligand consumed for catalyzed and spontaneous hydrolyses. "--" =
(§3) No hydrolysis observed. "NT" = Not tried. All reactions were carried out
(§4) at pH 8.0 in a 50 mM phosphate buffer unless otherwise noted. Hydrolytic
(§5) percentages were determined by HPLC using a Hitachi model 655A12 liquid
(§6) chromatograph with a C18 Vydac 201TP54 column, except as noted below.
(§7) Mixtures of acetonitrile a nd water containing 0.1 percent trichloroaceti
(§8) acid [28:72-50:50 (v/v)] were used as elutant. Hydrolyses of Compounds 5
(§9) and 20 were assayed using fluorescence data.
(§10) ^2 Concentrations of receptor molecules (Rec.) and reactant ligands
(§11) (Lig.) in micromolar units, presuming a molecular weight of 150,000
(§12) daltons for each receptor molecule.
(§13) ^3 Reactant ligand (Lig.) used as substrate.
(§14) ^4 Time in hours that the reaction was permitted to take place.
(§15) ^5 Spontaneous hydrolytic percentages for the time period indicated.
(§16) ^6 Reaction carried out at pH 7.2 in a 50 mM phosphate buffer.

22F5 = experiment: Hydrolysis of reactant ligands by receptor 22F5; conditions: for hydrolysis by 22F5: pH 8.0, receptor/ligand uM, time h: 17 1/10, 2, 18 2/10, 24, 20 2/10, 0.33, 5 1/5, 0.33, 22 5/10, 3.5, preliminary
Protocol: as §1, §2, §3, §4, §5, §6, §7, §8, §9, §10, §11, §12, §13, §14, §15, §16

Monoclonal Receptor 22F5 = experiment: Kinetics of hydrolysis by receptor 22F5
Excerpt: Reaction kinetics were studied using three reactant ligands as substrates for monoclonal receptors 37G2 and 22F5. Data from initial rates were consistent with Michaelis-Menten reaction mechanism for a usual enzyme-substrate system. Initial rates were followed using at 271 nm using a U.V.-visible spectorphotometer for Compound 17, and a fluorescence spectrometer for Compounds 5 and 20, using an excitation wavelength of 355 nm and an emission wavelength of 455 nm for both compounds.
Lineweaver-Burke plots for the catalyzed hydrolysis of Compounds 17, 5 and 20 obtained in the presence and absence of Compound 12i as inhibitor were prepared as discussed for FIG. 4. In particular, Compound 17 was present at concentrations of 1-16 uM with inhibitor concentrations of 100 and 300 nanomolar (nM). Compound 5 was present at concentrations of 1-10 uM with inhibitor concentrations of 100 and 200 nM. Compound 20 was present at concentrations of 2-20 uM with inhibitor concentrations of 25 and 100 nM.
*Fluorescence assays using Compounds 20 and 5 were carried out in a
PerkinElmer fluorescence spectrophotometer (moded LS5; Oakbrook, IL) usin
200 nanomolar receptor (based on a molecular weight of 150,000 daltons) i
50 mM phosphate buffer at a pH value of 8.0. The reactant ligand was
dissolved in dioxane and admixed in the amounts discussed above. Two
milliliters of reaction solution were utilized as was a dioxane
concentration of 2 percent by volume. […]

[2] = pH 7.2, 1 uM receptor, 10 uM ligand, 2 h

SMILES	inactivation of receptor [1]	stoichiometry, mole of ester per mole of combining sites ([1]; IgG molecular weight 150,000 assumed)	rate change pH 8.0 versus pH 7.0 ([1]; preliminary)	catalytic hydrolysis by P2 50D8 (P2 50D8)	hydrolysis by 13E10 (13E10)	hydrolysis by 22F5 (22F5)	Km (Monoclonal Receptor 22F5; 50 mM phosphate pH 8.0, 200 nM receptor, 2% dioxane, figure = Km × 10^6) [µM]	kcat (Monoclonal Receptor 22F5; pH 8.0) [s⁻¹]	Vmax (Monoclonal Receptor 22F5; pH 8.0, 200 nM receptor, figure = Vmax × 10^9) [µM/min]	hydrolysis by 13E10, pH 7.2 (13E10; [2])	hydrolysis by 22F5, pH 7.2 (22F5; [2])
O=C(Cc1ccc(NC(=O)C(F)(F)F)cc1)Oc1ccc2ccc(=O)oc2c1 [Compound 5]	specific inactivator	one	modest rate increase	capable of catalytically hydrolyzing	13 percentage of reactant ligand	48 percentage of reactant ligand	1.4	0.0022	0.0912		
CC(=O)Nc1ccc(CC(=O)Oc2cccc3ccccc23)cc1 [Compound 17]					32 percentage of reactant ligand	51 percentage of reactant ligand				33 percentage of reactant ligand	16 percentage of reactant ligand
